According to US20240018121A1, “NOVEL HETEROAROMATIC COMPOUNDS EXHIBITING ANTIFUNGAL ACTIVITY AND THEIR METHOD OF USE” (FOX CHASE CHEMCIAL DIVERSITY CENTER, INC., priority 2020, published 2024):
≈ marks a conversion by molar mass, not a printed value. Structures can show the parent of a compound that is named as a salt. Where two headings read alike, the source gives them in different places.

Legend:
Assay type in all cases: cell-based
[1] = test system: Aspergillus flavus AFL1 (ATCC MYA-3631); experiment: Fungal MIC Protocol, Aspergillus flavus; conditions: Aspergillus flavus, read-out: MIC Aspergillus flavus 3631
Procedure: (§1) Fungal MIC Protocol: RPMI/MOPS media (Roswell Park Memorial Institute/3-morpholinopropane-1-sulfonic acid media) is prepared by dissolving 8.4 grams RPMI […] (Sigma cat #R1383), 34.52 grams MOPS buffer (Sigma cat #M3.183) and 2 […] glucose in 900 mL deionized water. The pH is adjusted to 7.0 with NaOH and filter sterilized. 0.1 mL, of a stock spore suspension (or loop from frozen stock) is inoculated to a 75 mL tissue culture flask (Falcon cat #353136) containing 50 mL of Potato Dextrose Agar (PDA, 24 grams PD broth (Fisher cat #DF 0549179), 20 grams agar (Fisher cat #BP 1423500) per liter water). Aspergillus and Fusarium strains are grown at 35° C. and Mucor strains are grown at room temperature for 3-5 days. Spores are harvested by flooding the flask with 5 mL phosphate buffered saline (PBS) pH 7.4+0.1% Tween-20 and several glass beads (Fisher cat #S800243) are added to aid in agitation. The supernatant is removed and the OD530 of a 1:100 dilution is measured. Spores are diluted in RPMI/MOPS to a final OD530 of 0.002 for Aspergillus and an OD530 of 0.005 for Fusarium and Mucor. The final concentration of spores is approximately 2×10^4 cfu/mL. Test compound(s) are diluted to 200 ug/mL in RPMI/MOPS ([…]). Ten (10) serial dilutions are prepared with RPMI/MOPS in a 96-well round bottom plate (Fisher cat #353136). For Mucor strains a sterile flat-bottom 96-well plate is used. 50 μl of compound dilutions in duplicate are added to a sterile 96-well round bottom plate. 50 ul of diluted spores are added to the compound-containing plates. Control wells include 1) compound but no cells and 2) spores but no compound. Mix the plates gently by hand, place in ziplock bags and
(§2) incubate at 35° C. for 48 hours. […]

[2] = test system: Aspergillus fumigatus T33439 (ATCC MYA-3626); experiment: Fungal MIC Protocol, Aspergillus fumigatus; conditions: Aspergillus fumigatus, read-out: MIC Aspergillus fumigatus 3626
Procedure: as §1, §2

[3] = test system: Fusarium falciforme FS1 (ATCC MYA-3636); experiment: Fungal MIC Protocol, Fusarium falciforme; conditions: Fusarium falciforme, read-out: MIC Fusarium falciforme 3636
Procedure: as §1, §2

[4] = test system: Fusarium solani (ATCC 58877); experiment: Fungal MIC Protocol, Fusarium solani; conditions: Fusarium solani, read-out: MIC Fusarium solani 58877
Procedure: as §1, §2

[5] = test system: Mucor circinelloides 1463(62) (ATCC 26759); experiment: Fungal MIC Protocol, Mucor circinelloides (MIC-50); conditions: Mucor circinelloides, read-out: MIC-50 Mucorales circinelloides 26579
Procedure: as §1
(§3) incubate at 35° C. for 48 hours. Score the MIC visually (lowest concentration of compound showing >50% growth inhibition) using an inverted mirror.

[6] = test system: Mucor ramosissimus 057718 (ATCC 90286); experiment: Fungal MIC Protocol, Mucor ramosissimus (MIC-50); conditions: Mucor ramosissimus, read-out: MIC-50 Mucorales ramosissimus 90286
Procedure: as §1, §3

[7] = 100% growth inhibition at 48 hours
[8] = ATCC58877, 100% growth inhibition at 48 hours
[9] = ATCC26759, 50% growth inhibition at 48 hours
[10] = ATCC90286, 50% growth inhibition at 48 hours

SMILES | MIC [1, 7] [µg/mL] | MIC [2, 7] [µg/mL] | MIC [3, 7] [µg/mL] | MIC [4, 8] [µg/mL] | MIC50 [5, 9] [µg/mL] | MIC50 [6, 10] [µg/mL] | MIC ([1]; 48 h) [µg/mL] | MIC ([2]; 48 h) [µg/mL] | MIC ([3]; 48 h) [µg/mL] | MIC ([4]; ATCC58877, 48 h) [µg/mL] | MIC50 ([5]; ATCC26759, 48 h) [µg/mL] | MIC50 ([6]; ATCC90286, 48 h) [µg/mL]
N=C(N)N1CC=C(c2ccc(-c3nnc(-c4ccc(C5=CCN(C(=N)N)CC5)cc4)n3C3CC3)cc2)CC1 [Example 4, 4,4′-(4,4′-(4-Cyclopropyl-4H-1,2,4-triazole-3,5-diyl)bis(4,1-phenylene)) bis(5,6-dihydropyridine-1(2H)-carboximidamide)] | 0.39 (≈ 0.768 µM) | < 0.1 | < 0.1 | 0.2 (≈ 0.394 µM) | 0.39 (≈ 0.768 µM) | 1.56 (≈ 3.07 µM) |  |  |  |  |  | 
N=C(N)N1CC=C(c2ccc(-c3nnc(-c4ccc(C5=CCN(C(=N)N)CC5)cc4)n3Cc3ccccc3)cc2)CC1 [Example 5, 4,4′-(4,4′-(4-Benzyl-4H-1,2,4-triazole-3,5-diyl)bis(4,1-phenylene))bis(5,6-dihydropyridine-1(2H)-carboximidamide)] | 1.56 (≈ 2.8 µM) | 0.39 (≈ 0.699 µM) | < 0.1 | 0.39 (≈ 0.699 µM) | 1.56 (≈ 2.8 µM) | 6.25 (≈ 11.2 µM) |  |  |  |  |  | 
CC(O)Cn1c(-c2ccc(C3=CCN(C(=N)N)CC3)cc2F)nnc1-c1ccc(C2=CCN(C(=N)N)CC2)cc1F (stereo not shown) [Example 66, 4-(4-{5-[4-(1-carbamimidoyl-1,2,3,6-tetrahydropyridine-4-yl)-2-fluorophenyl]-4-(2-hydroxypropyl)-4H-1,2,4-triazol-3-yl}-3-fluorophenyl)-1,2,3,6-tetrahydropyridine-1-carboximidamide trifluoroacetate] |  |  |  |  |  |  | 0.39 | 0.2 | 0.1 | 0.2 | 1.56 | 6.25
N=C(N)N1CC=C(c2ccc(-c3nnc(-c4ccc(C5=CCN(C(=N)N)CC5)cc4F)n3C(CO)CO)c(F)c2)CC1 [Example 71, 4-(4-{5-[4-(1-carbamimidoyl-1,2,3,6-tetrahydropyridin-4-yl)-2-fluorophenyl]-4-(1,3-dihydroxypropan-2-yl}-4H-1,2,4-triazol-3-yl)-3-fluorophenyl)-1,2,3,6-tetrahydropyridine-1-carboximidamide hydrochloride] |  |  |  |  |  |  | 3.13 | 1.56 | 1.56 | 0.39 | 25 | 25
CC(C)(O)Cn1c(-c2ccc(C3=CCN(C(=N)N)CC3)cc2F)nnc1-c1ccc(C2=CCN(C(=N)N)CC2)cc1F [Example 74, 4-(4-{5-[4-(1-carbamimidoyl-1,2,3,6-tetrahydropyridin-4-yl)-2-fluorophenyl]-4-(2-hydroxy-2-methylpropyl)-4H-1,2,4-triazol-3-yl}-3-fluorophenyl)-1,2,3,6-tetrahydropyridine-1-carboximidamide hydrochloride] |  |  |  |  |  |  | 0.78 | 0.39 | 0.1 | 0.1 | 1.56 | 3.13
COc1cc(C2=CCN(C(=N)N)CC2)ccc1-c1nnc(-c2ccc(C3=CCN(C(=N)N)CC3)cc2OC)n1CCO [Example 75, 4-(4-{5-[4-(1-carbamimidoyl-1,2,3,6-tetrahydropyridin-4-yl)-2-methoxyphenyl]-4-(2-hydroxyethyl)-4H-1,2,4-triazol-3-yl}-3-methoxyphenyl)-1,2,3,6-tetrahydropyridine-1-carboximidamide trifluoroacetate] |  |  |  |  |  |  | 3.13 | 1.56 | 1.56 | 0.39 | 25 | 25
COc1cc(-c2nnc(-c3ccc(C4=CCN(C(=N)N)CC4)c(OC)c3)n2CCO)ccc1C1=CCN(C(=N)N)CC1 [Example 76, 4-(4-{5-[4-(1-carbamimidoyl-1,2,3,6-tetrahydropyridin-4-yl)-3-methoxyphenyl]-4-(2-hydroxyethyl)-4H-1,2,4-triazol-3-yl}-2-methoxyphenyl)-1,2,3,6-tetrahydropyridine-1-carboximidamide trifluoroacetate] |  |  |  |  |  |  | 3.13 | 0.78 | 0.78 | 0.39 | 25 | 25
N=C(N)N1CC=C(c2ccc(-c3nnc(-c4ccc(C5=CCN(C(=N)N)CC5)cc4F)n3CCOCCO)c(F)c2)CC1 [Example 77, 4-(4-{5-[4-(1-carbamimidoyl-1,2,3,6-tetrahydropyridin-4-yl)-2-fluorophenyl]-4-[2-(2-hydroxyethoxy)ethyl]-4H-1,2,4-triazol-3-yl}-3-fluorophenyl)-1,2,3,6-tetrahydropyridine-1-carboximidamide trifluoroacetate] |  |  |  |  |  |  | 0.78 | 0.2 | 0.2 | 0.2 | 6.25 | 25
N=C(N)N1CC=C(c2ccc(-c3nnc(-c4ccc(C5=CCN(C(=N)N)CC5)c(C(F)(F)F)c4)n3CCO)cc2C(F)(F)F)CC1 [Example 80, 4-(4-{5-[4-(1-carbamimidoyl-1,2,3,6-tetrahydropyridin-4-yl)-3-(trifluoromethyl)phenyl]-4-(2-hydroxyethyl)-4H-1,2,4-triazol-3-yl}-2-(trifluoromethyl)phenyl)-1,2,3,6-tetrahydropyridine-1-carboximidamide hydrochloride] |  |  |  |  |  |  | 25 | 25 | 25 | 25 | 25 | 25

Second part, led by results:

MIC [1, 7] [µg/mL] | MIC [2, 7] [µg/mL] | MIC [3, 7] [µg/mL] | MIC [4, 8] [µg/mL] | MIC50 [5, 9] [µg/mL] | MIC50 [6, 10] [µg/mL] | SMILES | MIC ([1]; 48 h) [µg/mL] | MIC ([2]; 48 h) [µg/mL] | MIC ([3]; 48 h) [µg/mL] | MIC ([4]; ATCC58877, 48 h) [µg/mL] | MIC50 ([5]; ATCC26759, 48 h) [µg/mL] | MIC50 ([6]; ATCC90286, 48 h) [µg/mL]
0.78 (≈ 1.31 µM) | 0.39 (≈ 0.657 µM) | < 0.1 | 0.39 (≈ 0.657 µM) | 0.78 (≈ 1.31 µM) | 0.78 (≈ 1.31 µM) | N=C(N)N1CC=C(c2ccc(-c3nnc(-c4ccc(C5=CCN(C(=N)N)CC5)cc4F)n3Cc3ccccc3)c(F)c2)CC1 [Example 18] |  |  |  |  |  | 
12.5 (≈ 21.4 µM) | 100 (≈ 171 µM) |  |  | 12.5 (≈ 21.4 µM) | 100 (≈ 171 µM) | CC(C)Nc1cc(C2=CCN(C(=N)N)CC2)ccc1-c1nnc(-c2ccc(C3=CCN(C(=N)N)CC3)cc2F)n1C(C)C [Example 26, 4-(4-(5-(4-(1-Carbamimidoyl-1,2,3,6-tetrahydropyridin-4-yl)-2-(isopropylamino)phenyl)-4-isopropyl-4H-1,2,4-triazol-3-yl)-3-fluorophenyl)-5,6-dihydro pyridine-1(2H)-carboximidamide] |  |  |  |  |  | 
< 0.1 | < 0.1 | < 0.1 | < 0.1 | > 100 | > 100 | Cn1c(-c2ccc(C3=CCN(C(=N)N)C3)cc2F)nnc1-c1ccc(C2=CCN(C(=N)N)C2)cc1F [Example 28, 3,3′-(4,4′-(4-Methyl-4H-1,2,4-triazole-3,5-diyl)bis(3-fluoro-4,1-phenylene)) bis(2,5-dihydro-1H-pyrrole-1-carboximidamide)] |  |  |  |  |  | 
6.25 (≈ 11.5 µM) | 6.25 (≈ 11.5 µM) | 1.56 (≈ 2.86 µM) | 1.56 (≈ 2.86 µM) | 6.25 (≈ 11.5 µM) | 50 (≈ 91.6 µM) | Cn1c(-c2ccc(C3=CCC(NC(=N)N)CC3)cc2F)nnc1-c1ccc(C2=CCC(NC(=N)N)CC2)cc1F (stereo not shown) [Example 40, 1-[4-(4-{5-[4-(4-Carbamimidamidocyclohex-1-en-1-yl)-2-fluorophenyl]-4-methyl-4H-1,2,4-triazol-3-yl}-3-fluorophenyl)cyclohex-3-en-1-yl]guanidine] |  |  |  |  |  | 
0.78 | 0.39 | 0.2 | 0.1 | 6.25 | 12.5 | CN(C)CCn1c(-c2ccc(C3=CCN(C(=N)N)CC3)cc2F)nnc1-c1ccc(C2=CCN(C(=N)N)CC2)cc1F.Cl [Example 72, 4-(4-{5-[4-(1-carbamimidoyl-1,2,3,6-tetrahydropyridin-4-yl)-2-fluorophenyl]-4-[2-(dimethylamino)ethyl]-4H-1,2,4-triazol-3-yl}-3-fluorophenyl)-1,2,3,6-tetrahydropyridine-1-carboximidamide hydrochloride] |  |  |  |  |  | 
